Laboratory results: patent publication US20240317683A1, “METHODS OF TREATING MOOD DISORDERS” (priority 2020, published 2024)

Tests used:
[1] = Stability in mouse brain homogenate; type: in vitro ADME, CD-1 mice
Method: Mouse Brain Homogenate Stability. Frozen mouse brain homogenate (pooled from male CD-1 mice, BioreclamationIVT, MSE00BRAINMZA) was thawed in a water bath at 37° C. immediately prior to use. Positive controls and test compounds (final concentration in incubation medium=1 μM for test compounds and 2 μM for controls, all with 2% DMSO) were incubated in duplicate for each time point (0, 10, 30, 60, and 120 min) in the mouse brain homogenate at a total reaction volume of […] at 37° C. At the end of each incubation period, reactions were immediately quenched with 400 μL of acetonitrile containing internal standard (200 ng/mL tolbutamine and 200 ng/ml labetalol) and mixed thoroughly. Plates were then sealed, shaken for 20 min, and centrifuged at 4,000 rpm and 4° C. for 20 min. Aliquots of 50 μL of each supernatant were diluted into 100 μL of water and the mixtures were then shaken again for 10 min.

[2] = Metabolic stability in mouse liver microsomes (MLM); type: in vitro ADME, CD-1 mice; settings: CD-1, mouse, pooled mouse liver microsomes, pH 7.4, NADPH
Method: (§1) MLM Stability. Pooled MLM from CD-1 mice (BIOIVT M00501) were used. Microsomal incubations were carried out in multi-well plates. […] Control incubations were performed by replacing the NADPH-cofactor system with PBS. Test compounds (1 μM, final solvent concentration 1.0%) were incubated with microsomes at 37° C. with constant shaking. Six time points over 60 minutes were analyzed, with 60 μL aliquots of the reaction mixture being drawn at each time point.

[3] = biological target: serotonin transporter (SERT) (Homo sapiens (Human), UniProt P31645); assay: SERT fluorescent substrate uptake inhibition in transfected HEK293 cells; type: cell-based; settings: HEK293 cells expressing SERT
Method: SERT Uptake Inhibition. The ability of test compounds to block monoamine uptake by SERT was determined using the Neurotransmitter Transporter Uptake Assay Kit manufactured by Molecular Devices (Cat #R8173). Briefly, stably transfected HEK293 cells expressing SERT were grown and plated into 384-well plates at a concentration of 20,000 cells per well. Plates were then incubated for 16-20 h at 37° C. and 5% CO2. The medium was then aspirated and replaced with 25 μL of assay buffer (20 mM HEPES in HBSS, containing 0.1% BSA) containing the test compounds at the appropriate concentrations. Plates were then centrifuged at 300 rpm for 15 s and then incubated at 37° C. for 30 minutes. At this time, 25 μL of the proprietary fluorescent dye solution was added, the plates were incubated at 37°° C. for 60 minutes, and then fluorescence was quantified on a plate reader (excitation wavelength =440 nm, emission wavelength=520 nm). The proprietary dye solution contains a mixture of 1) a fluorescent dye (dye 1) that mimics the endogenous substrate of SERT and is thereby actively transported to the intracellular compartment in the absence of an inhibitor and 2) a masking dye that inhibits the fluorescence of dye 1 in the extracellular compartment. Therefore, the overall fluorescence of the system increases as the fluorescent dye is transported into the cells.

5-HT2B = 5-HT2B (Homo sapiens (Human), UniProt P41595); assay: FLIPR Ca2+ flux agonist assay, 5-HT2B; type: cell-based; settings: Ca2+ flux, HEK293
Method: (§2) A solution of 250 mM probenecid in 1 mL FLIPR assay buffer was prepared fresh. This was combined with a fluorescent dye (Fluo-4 Direct™) to make a final assay concentration of 2.5 mM. […] The fluorescent dye was then added to the assay plate along with assay buffer to a final volume of 40 μL. The cell plate was incubated for 50 min at 37° C. and 5% CO2 and placed into the FLIPR Tetra along with the compound plate. 10 μL of references and compounds were then transferred from the compound plate into the cell plate and the fluorescent signal was read.

5-HT1A = 5-HT1A (Homo sapiens (Human), UniProt P08908); assay: FLIPR Ca2+ flux agonist assay, 5-HT1A; type: cell-based; settings: Ca2+ flux, CHO cells
Method: as §2

5-HT2A = 5-HT2A (Homo sapiens (Human), UniProt P28223); assay: FLIPR Ca2+ flux agonist assay, 5-HT2A; type: cell-based; settings: HEK293
Method: as §2

[4] = Metabolic stability in rat liver microsomes (RLM); type: in vitro ADME; settings: both sexes, pooled rat liver microsomes, pH 7.4, NADPH
Method: as §1, with “RLM” for “MLM”, “adult male and female donors (Xenotech R1000)” for “CD-1 mice (BIOIVT M00501)”

[5] = Metabolic stability in human liver microsomes (HLM); type: in vitro ADME; settings: both sexes, pooled human liver microsomes, pH 7.4, NADPH
Method: as §1, with “HLM” for “MLM”, “adult male and female donors (Corning 452117)” for “CD-1 mice (BIOIVT M00501)”

[6] = system: monoamine oxidase A and B (MAO-A and MAO-B); assay: Stability in the presence of monoamine oxidases (human liver mitochondria); type: in vitro ADME
Method: Liver Mitochondria Incubations. Human liver mitochondria (Xenotech H0610.M) were used. Mitochondrial incubations were carried out in multi-well plates. […] Six time points over 60 minutes were analyzed.

[7] = Stability in rat brain homogenate; type: in vitro ADME, Sprague Dawley rats
Method: Rat Brain Homogenate Stability. Frozen rat brain homogenate (pooled from male Sprague Dawley rats, BioreclamationIVT, RATOOBRAINMZA) was thawed in a water bath at 37° C. immediately prior to use. Positive controls and test compounds (final concentration in incubation medium=1 μM for test compounds and 2 μM for controls, all with 2% DMSO) were incubated in duplicate for each time point (0, 10, 30, 60, and 120 min) in the rat brain homogenate at a total reaction volume of 100 μL at 37° C. At the end of each incubation period, reactions were immediately quenched with 400 μL of acetonitrile containing internal standard (200 ng/ml tolbutamine and 200 ng/ml labetalol) and mixed thoroughly. Plates were then sealed, shaken for 20 min, and centrifuged at 4,000 rpm and 4° C. for 20 min. Aliquots of 50 μL of each supernatant were diluted into 100 uL of water and the mixtures were then shaken again for 10 min.

C57BL/6 mice = assay: Head twitch response (HTR) in mice; type: in vivo
Method: Animals. Adult male C57BL/6 mice, aged 8 weeks (body weight 20-25 g) were used in these experiments. Animals were housed under controlled temperatures and 12-hour light/dark cycles (lights on between 07:00-19:00 h), with ad libitum food and water. The protocol was approved by the Eurofins Advinus Institutional Animal Care and Use Committee. This study was carried out in strict accordance with the recommendations in the Guide for the Care and Use of Laboratory Animals of the National Institutes of Health. All efforts were made to minimize suffering.
Drugs and Drug administration. Compounds 3 and 4 were prepared as described above. All other compounds were commercially obtained. Test compounds were used as the hydrogen fumarate (1 and 2) or hydrochloride (DOI, 3, and 4) salts. Drugs were dissolved in a vehicle consisting of normal saline and administered subcutaneously (SC) in a volume of 10 ml/kg. Test compounds were administered at 5 doses per compound (0.1 to 100 mg/kg, as indicated, calculated based on the free base) using N=6 animals/group. […] For blockade experiments, MDL100907 (0.1 mg/kg, SC) was administered 10 mins prior to the test compound.
Procedure. Mice were administered one dose of a test drug (or vehicle) s.c. and immediately placed into a small open field for behavioral observation. Animals were observed continuously for 20 mins and the number of HTRs were counted by an observer blind to the treatment condition.
Statistical analysis. The data points shown in Table 11 are the mean ±standard error of the mean (SEM). Analysis was performed using GraphPad Prism 9.

[8] = human liver mitochondria, pH 7.4, human mitochondrial preparation, 1 μM

Chain of 5-HT2B (P41595 whole entry, looked up, species assumed): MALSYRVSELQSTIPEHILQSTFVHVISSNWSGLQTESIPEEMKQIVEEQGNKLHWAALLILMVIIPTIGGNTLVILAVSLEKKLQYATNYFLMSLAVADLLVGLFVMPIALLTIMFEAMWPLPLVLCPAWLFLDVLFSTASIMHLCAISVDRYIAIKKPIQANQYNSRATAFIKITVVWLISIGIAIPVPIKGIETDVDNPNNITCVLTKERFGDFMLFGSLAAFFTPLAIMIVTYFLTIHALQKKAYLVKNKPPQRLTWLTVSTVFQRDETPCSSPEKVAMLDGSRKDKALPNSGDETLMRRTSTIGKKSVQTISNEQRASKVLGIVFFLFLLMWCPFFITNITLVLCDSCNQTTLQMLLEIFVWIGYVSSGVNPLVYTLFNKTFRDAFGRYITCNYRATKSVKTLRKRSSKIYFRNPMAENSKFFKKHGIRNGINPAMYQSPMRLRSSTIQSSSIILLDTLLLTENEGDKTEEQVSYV

## COc1ccc2[nH]cc(CCN(C)C)c2c1 [Compound 5-MeO-DMT, 5-methoxy-N,N-dimethyltryptamine, reference compound]
[1]
  stability in mouse brain homogenate (in words): high stability
[1]; male, CD-1, mouse brain homogenate, 1 μM, 37° C.
  half-life at 1 μM: > 289 min
[1]; mouse brain homogenate, 1 μM, 37° C.
  % Compound Remaining (after 120 min): 91.2%
[2]
  half-life at 1 μM: 48.8 min
  microsomal CLint at 1 μM: 28.4 µL/min/mg
[3]
  IC50: 7.02 µM
  SERT % Inhibition @ Max Dose: 68.07%
5-HT2B
  5-HT2B % Act @ Max Dose: 20.5%
5-HT1A
  5-HT1A % Act @ Max Dose: 78.8%
5-HT2A
  5-HT2A % Act @ Max Dose: 106%
[4]
  half-life at 1 μM: 14 min
  microsomal CLint at 1 μM: 98.8 µL/min/mg
[5]
  half-life at 1 μM: 13.6 min
[6]; human liver mitochondria preparation
  MAO stability (in words): highly metabolized
[6]; [8]
  half-life at 1 μM: 52.9 min
  microsomal CLint at 1 μM: 43.6 µL/min/mg
[6]; human mitochondrial preparation, 1 μM, 60 min
  Remaining (t = 60 min): 47.1%
[7]
  stability in rat brain homogenate (in words): highly unstable
[7]; male, Sprague Dawley, rat brain homogenate, 1 μM, 37° C.
  half-life at 1 μM: 14.4 min
[7]; rat brain homogenate, 1 μM, 37° C.
  % Compound Remaining (after 120 min): 0.3%

## COc1cc(CC(C)N)c(OC)cc1I (stereo not shown) [DOI, 4-iodo-2,5-dimethoxyamphetamine, reference compound]
C57BL/6 mice; SC, maximal over tested doses
  maximal effect in HTR: 35.6 head twitches/20 min

## COc1cccc([C@H](O)C2CCN(CCc3ccc(F)cc3)CC2)c1OC [MDL100907, reference compound]
C57BL/6 mice; pretreatment 0.1 mg/kg SC, 10 mins prior to Compound 4
  blockade of the HTR induced by Compound 4: completely blocked
